Experimental data taken from US8404683B2, “Inhibitors of the interaction between MDM2 and P53” (Janssen Pharmaceutical N.V., priority 2004, dated 2013).

Columns and labels:
[1] = tested on: U87MG cells; assay: Proliferation assay (MTT-based) on U87MG tumour cells; conditions: Homo sapiens, U-87 MG, 96 h, 4 days of incubation, negative log value of the IC50-value, read-out: cell proliferation pIC50 (converted)
In short: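 Human glioblastoma U87MG cells (wild-type p53) exposed to compound for 4 days at ≤0.1% DMSO, then MTT added for 2 h at 37 °C and absorbance read at 540 nm. Growth expressed as % of untreated control; IC50 by probit analysis, reported as pIC50.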

Structure (SMILES)	IC50 [1] [µM]	melting point [°C]
c1ccc2c(CCNc3ccc(CNc4ccncc4)cc3)c[nH]c2c1 [Compound 11]	5.01	122
c1ccc(Cc2noc(-c3cc(Nc4ccc(NCCc5c[nH]c6ccccc56)cc4)ccn3)n2)cc1 [Compound 108]	–	159 to 161
OC1CCCc2c(Nc3ccc(NCCc4c[nH]c5ccccc45)cc3)ccnc21 (centres unmarked) [Compound 111]	0.0794	104
CCOc1cc(Nc2ccnc3c2CCC3O)ccc1NCCc1c[nH]c2cc(OC)ccc12 (centres unmarked) [Compound 112]	0.0316	194
N#Cc1ccc2[nH]cc(C(O)C(=O)Nc3ccc(Nc4ccncc4)cc3)c2c1 (centres unmarked) [Compound 113]	> 10	154
c1ccc2c(CCNc3ccc(Nc4ncnc5[nH]ccc45)cc3)c[nH]c2c1 [Compound 117]	> 10	211

Next, values leading:

IC50 [1] [µM]	melting point [°C]	Structure (SMILES)
5.01	238	O=c1cc(Nc2ccc(NCCc3c[nH]c4ccccc34)cc2)c2ccccc2[nH]1 [Compound 3]
2	145	COc1ccc2c(CNc3ccc(Nc4ccncc4)cc3)c[nH]c2c1 [Compound 7]
5.01	208	O=C(CCc1c[nH]c2ccccc12)Nc1ccc(Nc2ccncc2)cc1 [Compound 8]
> 10	210	c1ccc2c(CCNc3ccc(Nc4ccnc(-c5nnn[nH]5)c4)cc3)c[nH]c2c1 [Compound 87]
–	170 to 174	c1ccc(-c2noc(-c3cc(Nc4ccc(NCCc5c[nH]c6ccccc56)cc4)ccn3)n2)cc1 [Compound 107]
